Test system: skin
Assay: Test for skin accumulated stimulus, HRIPT (Human repeated insult patch tests)
Type: in vivo
Settings: for Number of examinees who exhibited ±, +, or ++ reactivity, 1st: 1st patch; for Number of examinees who exhibited ±, +, or ++ reactivity, 2nd: 2nd patch; for Number of examinees who exhibited ±, +, or ++ reactivity, 3rd: 3rd patch; for Number of examinees who exhibited ±, +, or ++ reactivity, 4th: 4th patch; for Number of examinees who exhibited ±, +, or ++ reactivity, 5th: 5th patch; for Number of examinees who exhibited ±, +, or ++ reactivity, 6th: 6th patch; for Number of examinees who exhibited ±, +, or ++ reactivity, 7th: 7th patch; for Number of examinees who exhibited ±, +, or ++ reactivity, 8th: 8th patch; for Number of examinees who exhibited ±, +, or ++ reactivity, 9th: 9th patch
Experimental: HRIPT (Human repeated insult patch tests) was conducted in order to identify skin accumulated stimulus of quercetin3-O-[3-O″-(E)-p-coumaroyl][β-D-glucopyranosyl-(1→3)-O-α-L-rhamnopyranosyl-(1→6)-O-β-D-glucopyranoside] and quercetin3-O-[3-O″-(E)-p-coumaroyl][α-L-rhamnopyranosyl-(1→6)-O-β-D-glucopyranoside] and to calculate the concentration range that can be used in skin. Specifically, 15 healthy adult examinees were randomly selected, and test compositions in which the compounds were respectively comprised in an amount of 0.5 wt. %, 1 wt. %, and 3 wt. % (the compositions for skin, comprising an emulsifying agent, a stabilizer, purified water, etc. in addition to the compounds) were dropped in the amount of 20 μl per chamber (IQ chamber, Epitest Ltd, Finland), and patched on the right site of the upper back of the examinees, and then, after 24 hours, the patch was replaced with a new patch. A total of 9 patches were conducted, three times a week for total 3 weeks, in such manner, the skin reactions before and after patch were examined every time, and the skin reactions until 48 hours after removing the final patch were observed, and the average reactivity was observed. The skin reaction was determined according to the criteria of International Contact Dermatitis Research Group (ICDRG). In the above table, “New Material 31” refers to quercetin3-O-[3-O″-(E)-p-coumaroyl][β-D-glucopyranosyl-(1→3)-O-α-L-rhamnopyranosyl-(1→6)-O-β-D-glucopyranoside], and “New Material 32” refers to quercetin3-O-[3-O″-(E)-p-coumaroyl][α-L-rhamnopyranosyl-(1→6)-O-β-D-glucopyranoside].

- Number of examinees who exhibited ±, +, or ++ reactivity, 1st (0.5 wt. %, line 1 of 3 (±)): 0 number
- Number of examinees who exhibited ±, +, or ++ reactivity, 1st (0.5 wt. %, line 2 of 3 (+)): 0 number
- Number of examinees who exhibited ±, +, or ++ reactivity, 1st (0.5 wt. %, line 3 of 3 (++)): 0 number
- Number of examinees who exhibited ±, +, or ++ reactivity, 2nd (0.5 wt. %, line 1 of 3 (±)): 0 number
- Number of examinees who exhibited ±, +, or ++ reactivity, 2nd (0.5 wt. %, line 2 of 3 (+)): 0 number
- Number of examinees who exhibited ±, +, or ++ reactivity, 2nd (0.5 wt. %, line 3 of 3 (++)): 0 number
- Number of examinees who exhibited ±, +, or ++ reactivity, 3rd (0.5 wt. %, line 1 of 3 (±)): 0 number
- Number of examinees who exhibited ±, +, or ++ reactivity, 3rd (0.5 wt. %, line 2 of 3 (+)): 0 number
- Number of examinees who exhibited ±, +, or ++ reactivity, 3rd (0.5 wt. %, line 3 of 3 (++)): 0 number
- Number of examinees who exhibited ±, +, or ++ reactivity, 4th (0.5 wt. %, line 1 of 3 (±)): 0 number
- Number of examinees who exhibited ±, +, or ++ reactivity, 4th (0.5 wt. %, line 2 of 3 (+)): 0 number
- Number of examinees who exhibited ±, +, or ++ reactivity, 4th (0.5 wt. %, line 3 of 3 (++)): 0 number
- Number of examinees who exhibited ±, +, or ++ reactivity, 5th (0.5 wt. %, line 1 of 3 (±)): 0 number
- Number of examinees who exhibited ±, +, or ++ reactivity, 5th (0.5 wt. %, line 2 of 3 (+)): 0 number
- Number of examinees who exhibited ±, +, or ++ reactivity, 5th (0.5 wt. %, line 3 of 3 (++)): 0 number
- Number of examinees who exhibited ±, +, or ++ reactivity, 6th (0.5 wt. %, line 1 of 3 (±)): 0 number
- Number of examinees who exhibited ±, +, or ++ reactivity, 6th (0.5 wt. %, line 2 of 3 (+)): 0 number
- Number of examinees who exhibited ±, +, or ++ reactivity, 6th (0.5 wt. %, line 3 of 3 (++)): 0 number
- Number of examinees who exhibited ±, +, or ++ reactivity, 7th (0.5 wt. %, line 1 of 3 (±)): 0 number
- Number of examinees who exhibited ±, +, or ++ reactivity, 7th (0.5 wt. %, line 2 of 3 (+)): 0 number
- Number of examinees who exhibited ±, +, or ++ reactivity, 7th (0.5 wt. %, line 3 of 3 (++)): 0 number
- Number of examinees who exhibited ±, +, or ++ reactivity, 8th (0.5 wt. %, line 1 of 3 (±)): 0 number
- Number of examinees who exhibited ±, +, or ++ reactivity, 8th (0.5 wt. %, line 2 of 3 (+)): 0 number
- Number of examinees who exhibited ±, +, or ++ reactivity, 8th (0.5 wt. %, line 3 of 3 (++)): 0 number
- average reactivity (0.5 wt. %, 9 patches over 3 weeks, 15 examinees, less than 3 is considered a stable composition): 0
- Number of examinees who exhibited ±, +, or ++ reactivity, 9th (0.5 wt. %, line 1 of 3 (±)): 0 number
- Number of examinees who exhibited ±, +, or ++ reactivity, 9th (0.5 wt. %, line 2 of 3 (+)): 0 number
- Number of examinees who exhibited ±, +, or ++ reactivity, 9th (0.5 wt. %, line 3 of 3 (++)): 0 number
- Number of examinees who exhibited ±, +, or ++ reactivity, 1st (1 wt. %, line 1 of 3 (±)): 0 number
- Number of examinees who exhibited ±, +, or ++ reactivity, 1st (1 wt. %, line 2 of 3 (+)): 0 number
- Number of examinees who exhibited ±, +, or ++ reactivity, 1st (1 wt. %, line 3 of 3 (++)): 0 number
- Number of examinees who exhibited ±, +, or ++ reactivity, 2nd (1 wt. %, line 1 of 3 (±)): 0 number
- Number of examinees who exhibited ±, +, or ++ reactivity, 2nd (1 wt. %, line 2 of 3 (+)): 0 number
- Number of examinees who exhibited ±, +, or ++ reactivity, 2nd (1 wt. %, line 3 of 3 (++)): 0 number
- Number of examinees who exhibited ±, +, or ++ reactivity, 3rd (1 wt. %, line 1 of 3 (±)): 0 number
- Number of examinees who exhibited ±, +, or ++ reactivity, 3rd (1 wt. %, line 2 of 3 (+)): 0 number
- Number of examinees who exhibited ±, +, or ++ reactivity, 3rd (1 wt. %, line 3 of 3 (++)): 0 number
- Number of examinees who exhibited ±, +, or ++ reactivity, 4th (1 wt. %, line 1 of 3 (±)): 0 number
- Number of examinees who exhibited ±, +, or ++ reactivity, 4th (1 wt. %, line 2 of 3 (+)): 0 number
- Number of examinees who exhibited ±, +, or ++ reactivity, 4th (1 wt. %, line 3 of 3 (++)): 0 number
- Number of examinees who exhibited ±, +, or ++ reactivity, 5th (1 wt. %, line 1 of 3 (±)): 0 number
- Number of examinees who exhibited ±, +, or ++ reactivity, 5th (1 wt. %, line 2 of 3 (+)): 0 number
- Number of examinees who exhibited ±, +, or ++ reactivity, 5th (1 wt. %, line 3 of 3 (++)): 0 number
- Number of examinees who exhibited ±, +, or ++ reactivity, 6th (1 wt. %, line 1 of 3 (±)): 0 number
SMILES: C[C@@H]1O[C@@H](OC[C@H]2O[C@@H](Oc3c(-c4ccc(O)c(O)c4)oc4cc(O)cc(O)c4c3=O)[C@H](O)[C@@H](OC(=O)/C=C/c3ccc(O)cc3)[C@@H]2O)[C@H](O)[C@H](O[C@@H]2O[C@H](CO)[C@@H](O)[C@H](O)[C@H]2O)[C@H]1O [New Material 31, quercetin3-O-[3-O″-(E)-p-coumaroyl][β-D-glucopyranosyl-(1→3)-O-α-L-rhamnopyranosyl-(1→6)-O-β-D-glucopyranoside]]
